Assay results as given in patent US20240368203A1, “DEGRADATION OF (EGFR) BY CONJUGATION OF EGFR INHIBITORS WITH E3 LIGASE LIGAND AND METHODS OF USE” (BeiGene, Ltd., priority 2022, published 2024).

Legend:
EGFR-L858R/T790M/C797S = target: T1, EGFR-L858R/T790M/C797S (Homo sapiens, UniProt P00533, C797S/L858R/T790M); assay: EGFR degradation HTRF assay in H1975-clone #25 cells; format: cell-based; conditions: 16 h treatment
T1 construct: expressed in transfected cells; host or cells: H1975-clone #25 (lentiviral over-expression, endogenous EGFR knocked out)
T1 sequence (P00533 25-1210 T790M/C797S/L858R): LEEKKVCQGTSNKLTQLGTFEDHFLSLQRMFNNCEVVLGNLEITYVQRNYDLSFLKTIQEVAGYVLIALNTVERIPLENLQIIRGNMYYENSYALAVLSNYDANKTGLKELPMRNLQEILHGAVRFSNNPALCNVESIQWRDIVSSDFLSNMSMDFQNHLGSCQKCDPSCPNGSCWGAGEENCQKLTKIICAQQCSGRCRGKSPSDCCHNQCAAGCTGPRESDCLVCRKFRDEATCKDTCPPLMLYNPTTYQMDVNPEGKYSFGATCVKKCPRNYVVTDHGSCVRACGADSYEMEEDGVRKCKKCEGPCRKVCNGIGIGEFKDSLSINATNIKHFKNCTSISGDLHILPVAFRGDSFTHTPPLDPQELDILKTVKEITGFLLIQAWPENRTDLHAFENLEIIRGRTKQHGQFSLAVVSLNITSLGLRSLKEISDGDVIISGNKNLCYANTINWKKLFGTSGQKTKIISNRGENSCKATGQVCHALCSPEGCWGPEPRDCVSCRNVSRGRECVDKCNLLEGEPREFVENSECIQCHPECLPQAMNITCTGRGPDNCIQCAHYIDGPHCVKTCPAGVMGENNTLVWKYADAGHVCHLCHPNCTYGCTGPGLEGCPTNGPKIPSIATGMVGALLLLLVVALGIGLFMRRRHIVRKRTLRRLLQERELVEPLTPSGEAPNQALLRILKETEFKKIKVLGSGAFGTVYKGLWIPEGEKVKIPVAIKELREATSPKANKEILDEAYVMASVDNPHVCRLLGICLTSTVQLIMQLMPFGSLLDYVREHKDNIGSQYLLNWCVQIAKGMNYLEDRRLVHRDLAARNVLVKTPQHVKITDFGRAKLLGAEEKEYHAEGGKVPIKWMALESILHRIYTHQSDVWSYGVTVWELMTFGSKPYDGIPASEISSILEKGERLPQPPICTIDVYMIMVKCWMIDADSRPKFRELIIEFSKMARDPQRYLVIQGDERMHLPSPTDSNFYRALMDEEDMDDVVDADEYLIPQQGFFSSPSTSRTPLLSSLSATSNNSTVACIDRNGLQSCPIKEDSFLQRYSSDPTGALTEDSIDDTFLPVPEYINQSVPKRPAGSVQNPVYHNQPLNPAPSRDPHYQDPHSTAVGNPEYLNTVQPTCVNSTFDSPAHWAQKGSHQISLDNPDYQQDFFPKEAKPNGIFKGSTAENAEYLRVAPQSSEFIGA
How it was run: (§1)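 H1975 clones with endogenous EGFR knocked out, homozygously expressing lentiviral L858R/T790M/C797S (#25) or Del19/T790M/C797S (#28), treated 16 h at 37° C with 8 doses from 10 uM, 5-fold, in 0.2% DMSO. EGFR in lysates measured by HTRF overnight; DC50 from four-parameter fit of % degradation.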

EGFR-Del19/T790M/C797S = assay: EGFR degradation HTRF assay in H1975-clone #28 cells; format: cell-based; conditions: H1975-clone #28 (Del19/T790M/C797S) cells, 16 h treatment
How it was run: as §1

CCc1cc(Nc2ncc(Br)c(Nc3ccc4nc(C)c(F)cc4c3P(C)(C)=O)n2)c(OC)cc1N1CCC2(CC1)CCN(C1CCN(c3ccc4c(c3)C(=O)N(C3CCC(=O)NC3=O)C4=O)CC1)CC2 (stereo not shown) [Example 92, 5-(4-(9-(4-((5-bromo-4-((5-(dimethylphosphoryl)-3-fluoro-2-methylquinolin-6-yl)amino)pyrimidin-2-yl)amino)-2-ethyl-5-methoxyphenyl)-3,9-diazaspiro[5.5]undecan-3-yl)piperidin-1-yl)-2-(2,6-dioxopiperidin-3-yl)isoindoline-1,3-dione]
DC50 (EGFR-L858R/T790M/C797S; H1975-clone #25 (L858R/T790M/C797S) cells, IC50 (DC50), read-out: DC50(nM) H1975 # 25-LTC): 8.2 nM
Dmax (EGFR-L858R/T790M/C797S; NCI-H1975, H1975-clone #25 (L858R/T790M/C797S) cells, maximum percentage of inhibition (degradation), read-out: Dmax (%) H1975 # 25-LTC): 85%
DC50 (EGFR-Del19/T790M/C797S; IC50 (DC50), read-out: DC50(nM) H1975 # 28 DTC): 3.3 nM
Dmax (%) H1975 # 28 DTC (EGFR-Del19/T790M/C797S; maximum percentage of inhibition (degradation)): 67%
